Patent US20250171437A1 (Agios Pharmaceuticals,Inc., priority 2022, published 2025)

Target: T1, human PAH with the R408W mutation (A375 R408W cells) (Homo sapiens, UniProt P00439, R408W)
T1 construct: expressed in transfected cells
T1 sequence (P00439 1-452 R408W): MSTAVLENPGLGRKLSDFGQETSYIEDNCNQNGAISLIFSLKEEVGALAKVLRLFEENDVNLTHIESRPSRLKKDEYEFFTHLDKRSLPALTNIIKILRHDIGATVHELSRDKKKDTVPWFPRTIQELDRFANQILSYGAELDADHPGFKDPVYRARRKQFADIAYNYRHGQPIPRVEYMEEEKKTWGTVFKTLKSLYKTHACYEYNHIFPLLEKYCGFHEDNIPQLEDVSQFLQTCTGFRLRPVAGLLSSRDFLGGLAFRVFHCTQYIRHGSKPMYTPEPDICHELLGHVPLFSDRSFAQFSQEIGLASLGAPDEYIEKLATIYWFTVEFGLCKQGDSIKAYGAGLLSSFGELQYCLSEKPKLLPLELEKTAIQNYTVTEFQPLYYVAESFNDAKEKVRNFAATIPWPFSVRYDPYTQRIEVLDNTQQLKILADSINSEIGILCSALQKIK
Assay: Cell Based Phenylalanine Flux Assay
Settings: A375 R408W cells; 24 hrs with compound, then 20 μM sepiapterin and 800 μM 13C9,15N-Phenylalanine for 4 hours; 13C-Tyrosine by LC-MS; average where tested multiple times
In short: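 Puromycin-selected A375 line, lentiviral hPAH R408W; cmpd 24 h, 37 °C, 5% CO2, 0.5% DMSO; then 20 μM sepiapterin + 800 μM 13C9,15N-Phe, 4 h; media extracted in 80% MeCN; 13C-Tyr by LC-MS; AC50 from 10-pt curves.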

AC50 | SMILES
≤ 500 nM | COc1cccc2oc([C@@H]3c4nc[nH]c4CCN3C(=O)c3ocnc3C(F)F)nc12 [Example 429, (S)-(4-(difluoromethyl)oxazol-5-yl)(4-(4-methoxybenzo[d]oxazol-2-yl)-6,7-dihydro-1H-imidazo[4,5-c]pyridin-5(4H)-yl)methanone]
500 to 1000 nM | COc1cccc2oc([C@H]3c4nc[nH]c4CCN3C(=O)c3ocnc3C(F)F)nc12 [Example 430, (R)-(4-(difluoromethyl)oxazol-5-yl)(4-(4-methoxybenzo[d]oxazol-2-yl)-6,7-dihydro-1H-imidazo[4,5-c]pyridin-5(4H)-yl)methanone]
≤ 500 nM | CC(C)(O)c1nc(C(F)F)c(C(=O)N2CCc3[nH]cnc3[C@H]2c2nc3c(Br)cccc3o2)o1 [Example 431, (S)-(4-(4-bromobenzo[d]oxazol-2-yl)-6,7-dihydro-1H-imidazo[4,5-c]pyridin-5(4H)-yl)(4-(difluoromethyl)-2-(2-hydroxypropan-2-yl)oxazol-5-yl)methanone]
≤ 500 nM | CC(C)(O)c1nc(C(F)F)c(C(=O)N2CCc3[nH]cnc3[C@@H]2c2nc3c(Br)cccc3o2)o1 [Example 432, (R)-(4-(4-bromobenzo[d]oxazol-2-yl)-6,7-dihydro-1H-imidazo[4,5-c]pyridin-5(4H)-yl)(4-(difluoromethyl)-2-(2-hydroxypropan-2-yl)oxazol-5-yl)methanone]
≤ 500 nM | O=C(c1ocnc1C(F)F)N1CCc2[nH]cnc2[C@H]1c1nc2c(Br)cccc2o1 [Example 433, (S)-(4-(4-bromobenzo[d]oxazol-2-yl)-6,7-dihydro-1H-imidazo[4,5-c]pyridin-5(4H)-yl)(4-(difluoromethyl)oxazol-5-yl)methanone]
≤ 500 nM | O=C(c1ocnc1C(F)F)N1CCc2[nH]cnc2[C@@H]1c1nc2c(Br)cccc2o1 [Example 434, (R)-(4-(4-bromobenzo[d]oxazol-2-yl)-6,7-dihydro-1H-imidazo[4,5-c]pyridin-5(4H)-yl)(4-(difluoromethyl)oxazol-5-yl)methanone]
≤ 500 nM | CC(C)(O)c1nc(C(F)F)c(C(=O)N2CCc3[nH]cnc3[C@H]2c2nc3c(Cl)cccc3o2)o1 [Example 435, [(4S)-4-(4-chloro-1,3-benzoxazol-2-yl)-1,4,6,7-tetrahydroimidazo[4,5-c]pyridin-5-yl]-[4-(difluoromethyl)-2-(1-hydroxy-1-methyl-ethyl)oxazol-5-yl]methanone]
500 to 1000 nM | CC(C)(O)c1nc(C(F)F)c(C(=O)N2CCc3[nH]cnc3[C@@H]2c2nc3c(Cl)cccc3o2)o1 [Example 436, [(4R)-4-(4-chloro-1,3-benzoxazol-2-yl)-1,4,6,7-tetrahydroimidazo[4,5-c]pyridin-5-yl]-[4-(difluoromethyl)-2-(1-hydroxy-1-methyl-ethyl)oxazol-5-yl]methanone]
≤ 500 nM | O=C(c1ocnc1C(F)F)N1CCc2[nH]cnc2[C@H]1c1nc2c(Cl)cccc2o1 [Example 437, [(4S)-4-(4-chloro-1,3-benzoxazol-2-yl)-1,4,6,7-tetrahydroimidazo[4,5-c]pyridin-5-yl]-[4-(difluoromethyl)oxazol-5-yl]methanone]
≤ 500 nM | O=C(c1ocnc1C(F)F)N1CCc2[nH]cnc2[C@@H]1c1nc2c(Cl)cccc2o1 [Example 438, [(4R)-4-(4-chloro-1,3-benzoxazol-2-yl)-1,4,6,7-tetrahydroimidazo[4,5-c]pyridin-5-yl]-[4-(difluoromethyl)oxazol-5-yl]methanone]
≤ 500 nM | Cc1ccc2nc([C@@H]3c4nc[nH]c4CCN3C(=O)c3oc(C(C)(C)O)nc3Br)oc2c1 [Example 439, (S)-(4-bromo-2-(2-hydroxypropan-2-yl)oxazol-5-yl)(4-(6-methylbenzo[d]oxazol-2-yl)-6,7-dihydro-1H-imidazo[4,5-c]pyridin-5(4H)-yl)methanone]

The next lines start with the compound.

SMILES | AC50
O=C(c1oc(N2CCOCC2)nc1C(F)F)N1CCc2[nH]cnc2[C@@H]1c1nc2cc(F)ccc2o1 [Example 414, (R)-(4-(difluoromethyl)-2-morpholinooxazol-5-yl)(4-(5-fluorobenzo[d]oxazol-2-yl)-6,7-dihydro-1H-imidazo[4,5-c]pyridin-5(4H)-yl)methanone] | 1000 to 5000 nM
CC(C)(O)c1nc(C(F)F)c(C(=O)N2CCc3[nH]cnc3[C@H]2c2nc3cc(Br)ccc3o2)o1 [Example 415, [(4S)-4-(5-bromo-1,3-benzoxazol-2-yl)-1,4,6,7-tetrahydroimidazo[4,5-c]pyridin-5-yl]-[4-(difluoromethyl)-2-(1-hydroxy-1-methyl-ethyl)oxazol-5-yl]methanone] | 500 to 1000 nM
CC(C)(O)c1nc(C(F)F)c(C(=O)N2CCc3[nH]cnc3[C@@H]2c2nc3cc(Br)ccc3o2)o1 [Example 416, [(4R)-4-(5-bromo-1,3-benzoxazol-2-yl)-1,4,6,7-tetrahydroimidazo[4,5-c]pyridin-5-yl]-[4-(difluoromethyl)-2-(1-hydroxy-1-methyl-ethyl)oxazol-5-yl]methanone] | 500 to 1000 nM
O=C(c1oc(-c2ccc(F)cn2)nc1C(F)F)N1CCc2[nH]cnc2[C@@H]1c1nc2cc(F)ccc2o1 [Example 417, (R)-(4-(difluoromethyl)-2-(5-fluoropyridin-2-yl)oxazol-5-yl)(4-(5-fluorobenzo[d]oxazol-2-yl)-6,7-dihydro-1H-imidazo[4,5-c]pyridin-5(4H)-yl)methanone] | ≤ 500 nM
O=C(c1oc(-c2ccc(F)cn2)nc1C(F)F)N1CCc2[nH]cnc2[C@H]1c1nc2cc(F)ccc2o1 [Example 418, (S)-(4-(difluoromethyl)-2-(5-fluoropyridin-2-yl)oxazol-5-yl)(4-(5-fluorobenzo[d]oxazol-2-yl)-6,7-dihydro-1H-imidazo[4,5-c]pyridin-5(4H)-yl)methanone] | ≤ 500 nM
O=C(c1oc(-c2cccnc2)nc1C(F)F)N1CCc2[nH]cnc2[C@@H]1c1nc2cc(F)ccc2o1 [Example 419, (R)-(4-(difluoromethyl)-2-(pyridin-3-yl)oxazol-5-yl)(4-(5-fluorobenzo[d]oxazol-2-yl)-6,7-dihydro-1H-imidazo[4,5-c]pyridin-5(4H)-yl)methanone] | 500 to 1000 nM
O=C(c1oc(-c2cccnc2)nc1C(F)F)N1CCc2[nH]cnc2[C@H]1c1nc2cc(F)ccc2o1 [Example 420, (S)-(4-(difluoromethyl)-2-(pyridin-3-yl)oxazol-5-yl)(4-(5-fluorobenzo[d]oxazol-2-yl)-6,7-dihydro-1H-imidazo[4,5-c]pyridin-5(4H)-yl)methanone] | ≤ 500 nM
O=C(c1oc(-c2ccncc2)nc1C(F)F)N1CCc2[nH]cnc2[C@H]1c1nc2cc(F)ccc2o1 [Example 421, (S)-(4-(difluoromethyl)-2-(pyridin-4-yl)oxazol-5-yl)(4-(5-fluorobenzo[d]oxazol-2-yl)-6,7-dihydro-1H-imidazo[4,5-c]pyridin-5(4H)-yl)methanone] | ≤ 500 nM
O=C(c1oc(-c2ccncc2)nc1C(F)F)N1CCc2[nH]cnc2[C@@H]1c1nc2cc(F)ccc2o1 [Example 422, (R)-(4-(difluoromethyl)-2-(pyridin-4-yl)oxazol-5-yl)(4-(5-fluorobenzo[d]oxazol-2-yl)-6,7-dihydro-1H-imidazo[4,5-c]pyridin-5(4H)-yl)methanone] | 500 to 1000 nM
CC(C)(O)c1nc(C(F)F)c(C(=O)N2CCc3[nH]cnc3[C@H]2c2nc3cccc(Cl)c3o2)o1 [Example 423, (S)-(4-(7-chlorobenzo[d]oxazol-2-yl)-6,7-dihydro-1H-imidazo[4,5-c]pyridin-5(4H)-yl)(4-(difluoromethyl)-2-(2-hydroxypropan-2-yl)oxazol-5-yl)methanone] | ≤ 500 nM
CC(C)(O)c1nc(C(F)F)c(C(=O)N2CCc3[nH]cnc3[C@@H]2c2nc3cccc(Cl)c3o2)o1 [Example 424, (R)-(4-(7-chlorobenzo[d]oxazol-2-yl)-6,7-dihydro-1H-imidazo[4,5-c]pyridin-5(4H)-yl)(4-(difluoromethyl)-2-(2-hydroxypropan-2-yl)oxazol-5-yl)methanone] | ≤ 500 nM
O=C(c1ocnc1C(F)F)N1CCc2[nH]cnc2[C@H]1c1nc2cccc(Cl)c2o1 [Example 425, (S)-(4-(7-chlorobenzo[d]oxazol-2-yl)-6,7-dihydro-1H-imidazo[4,5-c]pyridin-5(4H)-yl)(4-(difluoromethyl)oxazol-5-yl)methanone] | ≤ 500 nM
O=C(c1ocnc1C(F)F)N1CCc2[nH]cnc2[C@@H]1c1nc2cccc(Cl)c2o1 [Example 426, (R)-(4-(7-chlorobenzo[d]oxazol-2-yl)-6,7-dihydro-1H-imidazo[4,5-c]pyridin-5(4H)-yl)(4-(difluoromethyl)oxazol-5-yl)methanone] | ≤ 500 nM
COc1cccc2oc([C@@H]3c4nc[nH]c4CCN3C(=O)c3oc(C(C)(C)O)nc3C(F)F)nc12 [Example 427, (S)-(4-(difluoromethyl)-2-(2-hydroxypropan-2-yl)oxazol-5-yl)(4-(4-methoxybenzo[d]oxazol-2-yl)-6,7-dihydro-1H-imidazo[4,5-c]pyridin-5(4H)-yl)methanone] | ≤ 500 nM
COc1cccc2oc([C@H]3c4nc[nH]c4CCN3C(=O)c3oc(C(C)(C)O)nc3C(F)F)nc12 [Example 428, (R)-(4-(difluoromethyl)-2-(2-hydroxypropan-2-yl)oxazol-5-yl)(4-(4-methoxybenzo[d]oxazol-2-yl)-6,7-dihydro-1H-imidazo[4,5-c]pyridin-5(4H)-yl)methanone] | 1000 to 5000 nM
